According to patent US4778816A, “Anti-asthmatic composition and process for preparing the same” (Wakamoto Pharmaceutical Co., Ltd., priority 1984, dated 1988):

Legend:
release of histamine [1] = test: Inhibitory effect on the release of histamine from guinea pig lung slices (Test Example 1); assay type: cell-based; details: for Histamine release-inhibition rate: average of three measurements
release of SRS-A [2] = test: Inhibitory effect on the release of SRS-A from guinea pig lung slices (Test Example 1); assay type: cell-based; details: for SRS-A release-inhibition rate: average of three measurements
release of histamine [3] = test: Inhibitory effect on the release of histamine from rhesus monkey lung slices (Test Example 2); assay type: cell-based; details: average of three measurements
Method: (§1) Inhibitory effect of MTB on the release of histamine and SRS-A from rhesus monkey lung slices
(§2) Rhesus monkey lungs were cut into slices, which were passively sensitized with human atopy blood serum.
(§3) Thereafter the test was conducted in the same manner as in Test Example 1 to compare the histamine and SRS-A release-inhibition effect of the present medicine MTB with that of the known medicine DSCG.

release of SRS-A [4] = test: Inhibitory effect on the release of SRS-A from rhesus monkey lung slices (Test Example 2); assay type: cell-based; details: average of three measurements
Method: as §1, §2, §3

release of histamine [5] = test: Inhibitory effect on the release of histamine from human lung slices (Test Example 3); assay type: cell-based; details: average of three measurements
Method: (§4) Inhibitory effect of MTB on the release of histamine and SRS-A from human lung slices
(§5) A macrographically normal portion was sampled from a human lung excised in a lung cancer operation and was passively sensitized with human atopy blood serum in a similar manner to the case of the rhesus monkey lung slices mentioned above. Thereafter the histamine and SRS-A release-inhibiting effect of the test medicines was measured in the same manner as in Test Example 1.

release of SRS-A [6] = test: Inhibitory effect on the release of SRS-A from human lung slices (Test Example 3); assay type: cell-based; details: average of three measurements
Method: as §4, §5

experimental asthma = test: Effect of preventing experimental asthma (Test Example 4); assay type: in vivo, guinea pig; details: 250 mg/kg oral; for Tidal volume-decrease rate: 60 min before causing asthma, average of seven
Acute toxicity in mouse = test: Acute toxicity in mouse; design: species or system Mouse (ddy); details: in vivo, read-out: Acute toxicity LD 50
From the text: (§6) Animals tested were as follows.
Mouse: ddy, weight 20-23 g, 20 mice per group

Acute toxicity in rat = test: Acute toxicity in rat; design: species or system Rat (wistar); details: in vivo, read-out: Acute toxicity LD 50
From the text: as §6
Rat: wistar, weight 110-130 g 10 rats per group

Acute toxicity in dog = assay type: in vivo, Dog (beagle); details: in vivo, po; dog male, p.o.; read-out: Acute toxicity LD 50
From the text: as §6
(§7) Dog: beagle, weight 8 kg, 3 dogs per group

Dog = test: Acute toxicity in dog; assay type: in vivo, Dog (beagle); details: dog female, p.o.
From the text: as §6, §7

[7] = Solubility of MTB original powder in water; assay type: physicochemical
[8] = Differential thermal scanning calorimeter measurement of crystal structure; assay type: physicochemical; details: DSC 30 type, Shimadzu
From the text: From this observation, it has been confirmed that the treatment with the non-aqueous solvent in the new preparation process not only increases the mixing efficiency but also brings about a change in the crystal structure itself of MTB.

release of histamine [9] = details: Japanese Journal of Pharmacology, Vol. 32, pages 689-697, 1982; cited from earlier work

O=C(O)c1cc(=O)c2c(OCC(O)COc3cccc4oc(C(=O)O)cc(=O)c34)cccc2o1 [DSCG, disodium cromoglicate, reference compound]
Histamine release-inhibition rate (release of histamine [1]; 10^-4 g/ml): 2% | Histamine release-inhibition rate (release of histamine [1]; 10^-5 g/ml): 0% | SRS-A release-inhibition rate (release of SRS-A [2]; 10^-4 g/ml): 13% | SRS-A release-inhibition rate (release of SRS-A [2]; 10^-5 g/ml): 9% | Histamine release-inhibition rate (release of histamine [3]; 10^-4 g/ml): 0% | Histamine release-inhibition rate (release of histamine [3]; 10^-5 g/ml): 0% | SRS-A release-inhibition rate (release of SRS-A [4]; 10^-4 g/ml): 2% | SRS-A release-inhibition rate (release of SRS-A [4]; 10^-5 g/ml): 0% | Histamine release-inhibition rate (release of histamine [5]; 10^-4 g/ml): 18% | Histamine release-inhibition rate (release of histamine [5]; 10^-5 g/ml): 13% | SRS-A release-inhibition rate (release of SRS-A [6]; 10^-4 g/ml): 39% | SRS-A release-inhibition rate (release of SRS-A [6]; 10^-5 g/ml): 41%

COc1ccc(/C=C/C(=O)Nc2ccccc2C(=O)O)cc1OC [N-5', tranilast, reference compound]
Histamine release-inhibition rate (release of histamine [1]; 10^-4 g/ml): 16% | Histamine release-inhibition rate (release of histamine [1]; 10^-5 g/ml): 5% | SRS-A release-inhibition rate (release of SRS-A [2]; 10^-4 g/ml): 54% | SRS-A release-inhibition rate (release of SRS-A [2]; 10^-5 g/ml): 11% | Histamine release-inhibition rate (release of histamine [5]; 10^-4 g/ml): 31% | Histamine release-inhibition rate (release of histamine [5]; 10^-5 g/ml): 16% | SRS-A release-inhibition rate (release of SRS-A [6]; 10^-4 g/ml): 37% | SRS-A release-inhibition rate (release of SRS-A [6]; 10^-5 g/ml): 32% | Tidal volume-decrease rate (experimental asthma; 0 min): 0% | Tidal volume-decrease rate (experimental asthma; 1 min): 26% | Tidal volume-decrease rate (experimental asthma; 2 min): 24% | Tidal volume-decrease rate (experimental asthma; 3 min): 24% | Tidal volume-decrease rate (experimental asthma; 4 min): 26% | Tidal volume-decrease rate (experimental asthma; 5 min): 23% | Tidal volume-decrease rate (experimental asthma; 6 min): 25% | Tidal volume-decrease rate (experimental asthma; 8 min): 28% | Tidal volume-decrease rate (experimental asthma; 10 min): 24% | Tidal volume-decrease rate (experimental asthma; 15 min): 27% | Tidal volume-decrease rate (experimental asthma; 20 min): 22% | Tidal volume-decrease rate (experimental asthma; 30 min): 19%

CCCCOC(=O)C(=O)Nc1cccc(-c2nnn[nH]2)c1 [MTB, 5-(3-n-butyloxalyl-aminophenyl) tetrazole]
histamine release-inhibition rate compared with DSCG and N-5' (in words) (release of histamine [1]): remarkably high | Histamine release-inhibition rate (release of histamine [1]; 10^-4 g/ml): 37% | Histamine release-inhibition rate (release of histamine [1]; 10^-5 g/ml): 30% | Histamine release-inhibition rate (release of histamine [1]; 10^-6 g/ml): 14% | Histamine release-inhibition rate (release of histamine [1]; 10^-7 g/ml): 6% | Histamine release-inhibition rate (release of histamine [1]; 10^-8 g/ml): 8% | SRS-A release-inhibition rate compared with DSCG and N-5' (in words) (release of SRS-A [2]): remarkably high | SRS-A release-inhibition rate (release of SRS-A [2]; 10^-4 g/ml): 64% | SRS-A release-inhibition rate (release of SRS-A [2]; 10^-5 g/ml): 66% | SRS-A release-inhibition rate (release of SRS-A [2]; 10^-6 g/ml): 49% | SRS-A release-inhibition rate (release of SRS-A [2]; 10^-7 g/ml): 28% | SRS-A release-inhibition rate (release of SRS-A [2]; 10^-8 g/ml): 2% | Histamine release-inhibition rate (release of histamine [3]; 10^-4 g/ml): 27% | Histamine release-inhibition rate (release of histamine [3]; 10^-5 g/ml): 2% | Histamine release-inhibition rate (release of histamine [3]; 10^-6 g/ml): 12% | Histamine release-inhibition rate (release of histamine [3]; 10^-7 g/ml): 0% | SRS-A release-inhibition rate (release of SRS-A [4]; 10^-4 g/ml): 16% | SRS-A release-inhibition rate (release of SRS-A [4]; 10^-5 g/ml): 17% | SRS-A release-inhibition rate (release of SRS-A [4]; 10^-6 g/ml): 18% | SRS-A release-inhibition rate (release of SRS-A [4]; 10^-7 g/ml): 0% | Histamine release-inhibition rate (release of histamine [5]; 10^-4 g/ml): 27% | Histamine release-inhibition rate (release of histamine [5]; 10^-5 g/ml): 23% | Histamine release-inhibition rate (release of histamine [5]; 10^-6 g/ml): 23% | Histamine release-inhibition rate (release of histamine [5]; 10^-7 g/ml): 8% | Histamine release-inhibition rate (release of histamine [5]; 10^-8 g/ml): 0% | SRS-A release-inhibition rate (release of SRS-A [6]; 10^-4 g/ml): 47% | SRS-A release-inhibition rate (release of SRS-A [6]; 10^-5 g/ml): 47% | SRS-A release-inhibition rate (release of SRS-A [6]; 10^-6 g/ml): 43% | SRS-A release-inhibition rate (release of SRS-A [6]; 10^-7 g/ml): 31% | SRS-A release-inhibition rate (release of SRS-A [6]; 10^-8 g/ml): 2% | Tidal volume-decrease rate (experimental asthma; 0 min): 0% | decrease in unit tidal volume compared with control and N-5' (in words) (experimental asthma): remarkably low rate of decrease in unit tidal volume | Tidal volume-decrease rate (experimental asthma; 1 min): 17% | Tidal volume-decrease rate (experimental asthma; 2 min): 17% | Tidal volume-decrease rate (experimental asthma; 3 min): 21% | Tidal volume-decrease rate (experimental asthma; 4 min): 23% | Tidal volume-decrease rate (experimental asthma; 5 min): 21% | Tidal volume-decrease rate (experimental asthma; 6 min): 22% | Tidal volume-decrease rate (experimental asthma; 8 min): 21% | Tidal volume-decrease rate (experimental asthma; 10 min): 21% | Tidal volume-decrease rate (experimental asthma; 15 min): 14% | Tidal volume-decrease rate (experimental asthma; 20 min): 19% | Tidal volume-decrease rate (experimental asthma; 30 min): 15% | LD50 (Acute toxicity in mouse; ip, mouse female, i.p.): 1160 mg/kg | LD50 (Acute toxicity in mouse; ip, mouse male, i.p.): 1120 mg/kg | LD50 (Acute toxicity in mouse; iv, mouse female, i.v.): 1220 mg/kg | LD50 (Acute toxicity in mouse; iv, mouse male, i.v.): 1130 mg/kg | LD50 (Acute toxicity in mouse; po, mouse female, p.o.): > 4000 mg/kg | LD50 (Acute toxicity in mouse; po, mouse male, p.o.): > 4000 mg/kg | LD50 (Acute toxicity in mouse; sc, mouse female, s.c.): > 4000 mg/kg | LD50 (Acute toxicity in mouse; sc, mouse male, s.c.): > 4000 mg/kg | LD50 (Acute toxicity in rat; ip, rat female, i.p.): 1430 mg/kg | LD50 (Acute toxicity in rat; ip, rat male, i.p.): 1430 mg/kg | LD50 (Acute toxicity in rat; iv, rat female, i.v.): 1160 mg/kg | LD50 (Acute toxicity in rat; iv, rat male, i.v.): 1110 mg/kg | LD50 (Acute toxicity in rat; po, rat female, p.o.): > 4000 mg/kg | LD50 (Acute toxicity in rat; po, rat male, p.o.): > 4000 mg/kg | LD50 (Acute toxicity in rat; sc, rat female, s.c.): > 4000 mg/kg | LD50 (Acute toxicity in rat; sc, rat male, s.c.): > 4000 mg/kg | LD50 (Acute toxicity in dog): > 4000 mg/kg | Acute toxicity LD 50 (Dog): > 4000 mg/kg | solubility in water (in words) [7]: practically insoluble in water | peak of absorption indicating the crystal structure (DSC) [8]: shows a peak of absorption indicating the crystal structure | anti-allergic action (in words) (release of histamine [9]): anti-allergic action, inhibiting the release of histamine
